Tests used:
NAMPT = NAMPT (Homo sapiens, UniProt P43490); test: Time-Resolved Fluorescence Resonance Energy Transfer (TR-FRET) Binding Assay of NAMPT with PRPP; details: 2 nM NAMPT, 2 nM probe, 200 uM PRPP and 2.5 mM ATP, equilibrated 16 hours
Procedure, shortened: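 Final mix: 2 nM NAMPT, 2 nM probe, 1 nM Tb-anti-His antibody, 200 uM PRPP, 2.5 mM ATP, 2% DMSO in 1× assay buffer. Equilibrated 16 hours before TR-FRET read, allowing possible enzymatic modification of compounds.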

[1] = biological target: NAMPT (human, recombinant, C-terminally His-tagged) (Homo sapiens, UniProt P43490); test: Time-Resolved Fluorescence Resonance Energy Transfer (TR-FRET) Binding Assay of NAMPT; details: 6.8 nM NAMPT, 200 nM probe, equilibrated 3 hours, absence of substrates
Procedure, shortened: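 Recombinant C-terminally His-tagged human NAMPT (6.8 nM) incubated 3 h at room temperature with 200 nM Oregon Green 488–labelled nicotinamide-competitive probe and 1 nM Tb-anti-His antibody in HEPES pH 7.5, 2% DMSO. TR-FRET ratio Em520/Em495 normalized to controls; IC50 from four-parameter logistic fit.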

Chain of NAMPT (P43490 whole entry): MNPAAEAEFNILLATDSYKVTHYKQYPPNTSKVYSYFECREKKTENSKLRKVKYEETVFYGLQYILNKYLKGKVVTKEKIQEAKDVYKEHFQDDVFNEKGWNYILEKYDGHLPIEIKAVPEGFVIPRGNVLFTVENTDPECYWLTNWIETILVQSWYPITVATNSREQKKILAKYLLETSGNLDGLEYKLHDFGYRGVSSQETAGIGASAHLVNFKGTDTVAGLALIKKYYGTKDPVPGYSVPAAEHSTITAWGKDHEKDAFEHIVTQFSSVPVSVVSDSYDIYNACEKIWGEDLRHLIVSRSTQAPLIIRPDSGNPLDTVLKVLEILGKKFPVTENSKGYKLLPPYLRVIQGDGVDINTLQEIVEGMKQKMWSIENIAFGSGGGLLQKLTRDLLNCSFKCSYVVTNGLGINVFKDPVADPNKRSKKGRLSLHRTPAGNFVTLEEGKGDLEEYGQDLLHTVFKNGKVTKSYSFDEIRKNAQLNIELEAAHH
Chain of NAMPT (human, recombinant, C-terminally His-tagged) (P43490 whole entry): as above

SMILES | IC50 (NAMPT) [nM] | IC50 [1] [nM]
Cc1ncccc1N1CC(C(=O)Nc2ccc(C3CCN(C(=O)c4cccs4)CC3)cc2)C1 [Example 187, 1-(2-methylpyridin-3-yl)-N-{4-[1-(thiophen-2-ylcarbonyl)piperidin-4-yl]phenyl}azetidine-3-carboxamide] | 27.3 | 10.2
CCCC(=O)N1CCC(c2ccc(NC(=O)C3CN(c4cccnc4C)C3)cc2)CC1 [Example 194, N-[4-(1-butanoylpiperidin-4-yl)phenyl]-1-(2-methylpyridin-3-yl)azetidine-3-carboxamide] | 62.6 | 122
CCC(=O)N1CCC(c2ccc(NC(=O)C3CN(c4cccnc4)C3)cc2)CC1 [Example 121, N-[4-(1-propanoylpiperidin-4-yl)phenyl]-1-(pyridin-3-yl)azetidine-3-carboxamide] | 0.169 | 9.94
O=C(Nc1ccc(C2CCN(C(=O)c3ccccc3Cl)CC2)cc1)C1CN(c2cccnn2)C1 [Example 350, N-{4-[1-(2-chlorobenzoyl)piperidin-4-yl]phenyl}-1-(pyridazin-3-yl)azetidine-3-carboxamide] | 0.642 | 4.62
O=C(Nc1ccc(C2CCN(C(=O)c3ccsc3)CC2)cc1)C1CN(c2cccnc2)C1 [Example 109, 1-(pyridin-3-yl)-N-{4-[1-(thiophen-3-ylcarbonyl)piperidin-4-yl]phenyl}azetidine-3-carboxamide] | 0.398 | 5.03
O=C(Nc1ccc(C2CCN(C(=O)c3nccs3)CC2)cc1)C1CN(c2cccnc2)C1 [Example 108, 1-(pyridin-3-yl)-N-{4-[1-(1,3-thiazol-2-ylcarbonyl)piperidin-4-yl]phenyl}azetidine-3-carboxamide] | 0.176 | 3.33
O=C(Nc1ccc(OC2CCN(C(=O)CC3C[C@@H]4CC[C@H]3C4)CC2)cc1)C1CN(c2cccnc2)C1 (stereo partly drawn) [Example 36, N-[4-({1-[(1S,4R)-bicyclo[2.2.1]hept-2-ylacetyl]piperidin-4-yl}oxy)phenyl]-1-(pyridin-3-yl)azetidine-3-carboxamide] | 0.882 | 40.1
O=C(Nc1ccc(C2CCN(C(=O)CSc3ncccn3)CC2)cc1)C1CN(c2cccnn2)C1 [Example 382, 1-(pyridazin-3-yl)-N-(4-{1-[(pyrimidin-2-ylsulfanyl)acetyl]piperidin-4-yl}phenyl)azetidine-3-carboxamide] | 0.657 | 65.8

Other lines, results leading:

IC50 (NAMPT) [nM] | IC50 [1] [nM] | SMILES
0.293 | 33.9 | COCC(=O)N1CCC(c2ccc(NC(=O)C3CN(c4cccnc4)C3)cc2)CC1 [Example 135, N-{4-[1-(methoxyacetyl)piperidin-4-yl]phenyl}-1-(pyridin-3-yl)azetidine-3-carboxamide]
0.432 | 15.9 | CC1(C(=O)N2CCC(c3ccc(NC(=O)C4CN(c5cccnn5)C4)cc3)CC2)CC1 [Example 379, N-(4-{1-[(1-methylcyclopropyl)carbonyl]piperidin-4-yl}phenyl)-1-(pyridazin-3-yl)azetidine-3-carboxamide]
0.924 | 104 | CC(=O)N1CCC(c2ccc(NC(=O)C3CN(c4cccnn4)C3)cc2)CC1 [Example 316, N-[4-(1-acetylpiperidin-4-yl)phenyl]-1-(pyridazin-3-yl)azetidine-3-carboxamide]
111 | 165 | Cc1ncccc1N1CC(C(=O)Nc2ccc(C3CCN(C(=O)CCC(C)C)CC3)cc2)C1 [Example 176, N-{4-[1-(4-methylpentanoyl)piperidin-4-yl]phenyl}-1-(2-methylpyridin-3-yl)azetidine-3-carboxamide]
0.633 | 16.6 | Cc1cc(C)cc(CC(=O)N2CCC(c3ccc(NC(=O)C4CN(c5cccnn5)C4)cc3)CC2)c1 [Example 372, N-(4-{1-[(3,5-dimethylphenyl)acetyl]piperidin-4-yl}phenyl)-1-(pyridazin-3-yl)azetidine-3-carboxamide]

— patent US8975398B2, “NAMPT inhibitors” (AbbVie Inc., priority 2012, dated 2015)
